Data set [1] deals with T1, Xanthine dehydrogenase/oxidase (Bos taurus, UniProt P80457). Put plainly: Inhibition of bovine xanthine oxidase assessed as reduction in uric acid levels at 50 uM using xanthine as substrate after 120 mins by spectrophotometry. The note with it: cattle, 2 h.
The target of data set [2] is T1, Xanthine dehydrogenase/oxidase. Put plainly: Inhibition of bovine xanthine oxidase assessed as reduction in uric acid levels using xanthine as substrate after 120 mins by spectrophotometry.
Data set [3] shares this target. The data set is described as follows: Mixed-type inhibition of bovine xanthine oxidase assessed as enzyme-inhibitor complex using xanthine as substrate after 60 secs by Lineweaver-Burk plot method.
For data set [4] the target is unchanged. Put plainly: Mixed-type inhibition of bovine xanthine oxidase assessed as enzyme-inhibitor-substrate complex using xanthine as substrate after 60 secs by Lineweaver-Burk plot method.
Data set [5] shares this target. The data set is described as follows: Potency index, ratio of allopurinol IC50 to compound IC50 for inhibition of bovine xanthine oxidase. The following applies: cattle.

T1 sequence (P80457 whole entry): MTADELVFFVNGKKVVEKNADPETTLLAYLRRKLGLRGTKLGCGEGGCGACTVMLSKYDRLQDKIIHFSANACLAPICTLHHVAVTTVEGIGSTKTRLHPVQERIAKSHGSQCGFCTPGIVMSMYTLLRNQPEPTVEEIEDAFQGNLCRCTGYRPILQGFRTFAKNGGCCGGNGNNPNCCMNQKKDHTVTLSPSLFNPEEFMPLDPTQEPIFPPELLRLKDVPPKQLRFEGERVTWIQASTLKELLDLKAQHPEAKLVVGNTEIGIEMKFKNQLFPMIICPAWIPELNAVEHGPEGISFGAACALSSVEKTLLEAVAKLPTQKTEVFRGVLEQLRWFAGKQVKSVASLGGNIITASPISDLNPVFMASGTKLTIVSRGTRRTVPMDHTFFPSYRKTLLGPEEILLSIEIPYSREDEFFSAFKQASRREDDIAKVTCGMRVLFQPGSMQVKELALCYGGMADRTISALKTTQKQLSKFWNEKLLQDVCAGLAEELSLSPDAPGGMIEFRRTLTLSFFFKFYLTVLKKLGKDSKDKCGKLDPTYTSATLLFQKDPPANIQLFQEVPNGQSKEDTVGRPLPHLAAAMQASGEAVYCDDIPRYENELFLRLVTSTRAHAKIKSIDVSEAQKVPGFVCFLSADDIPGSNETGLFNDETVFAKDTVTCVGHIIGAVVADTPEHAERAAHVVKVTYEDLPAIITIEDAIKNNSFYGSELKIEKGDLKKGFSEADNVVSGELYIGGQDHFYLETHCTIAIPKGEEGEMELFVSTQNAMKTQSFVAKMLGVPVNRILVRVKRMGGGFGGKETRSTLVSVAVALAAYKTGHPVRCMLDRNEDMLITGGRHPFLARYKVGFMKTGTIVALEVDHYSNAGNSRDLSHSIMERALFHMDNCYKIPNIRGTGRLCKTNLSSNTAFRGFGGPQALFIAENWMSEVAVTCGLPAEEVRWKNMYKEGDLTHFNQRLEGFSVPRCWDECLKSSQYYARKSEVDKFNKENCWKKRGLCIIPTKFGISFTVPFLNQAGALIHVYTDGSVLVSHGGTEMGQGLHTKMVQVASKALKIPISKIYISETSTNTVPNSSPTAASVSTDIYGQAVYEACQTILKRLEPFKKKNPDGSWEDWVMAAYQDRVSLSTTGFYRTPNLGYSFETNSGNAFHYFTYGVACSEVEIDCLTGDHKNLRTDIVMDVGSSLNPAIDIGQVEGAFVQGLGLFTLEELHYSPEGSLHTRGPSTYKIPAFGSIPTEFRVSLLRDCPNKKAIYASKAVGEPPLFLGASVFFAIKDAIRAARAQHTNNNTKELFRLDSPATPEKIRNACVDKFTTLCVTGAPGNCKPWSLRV

As to `CC(=O)Nc1ccc(OCc2cn(Cc3ccc4c(c3)C(=O)c3ccccc3C4=O)nn2)cc1`, the inhibition (in general, the drop in the measured response relative to a control, in per cent) at 50 µM in data set [1] came out at 20.1%. In the case of `O=Cc1cc(F)ccc1OCc1cn(Cc2ccccc2)nn1`, in data set [1], the inhibition at 50 µM worked out at 83.4%. For the same compound, the IC50 (as a rule, the midpoint of a concentration-inhibition curve) in data set [2] was 21.5 µM. Consider `O=C1c2ccccc2C(=O)c2cc(Cn3cc(COc4c(Cl)cccc4Cl)nn3)ccc21`, for which, in data set [1], the inhibition at 50 µM was determined as 12.7%. On to `O=Cc1ccc(F)cc1OCc1cn(Cc2ccc3c(c2)C(=O)c2ccccc2C3=O)nn1`, for which the inhibition at 50 µM in data set [1] amounted to 70.8%. In addition, the IC50 in data set [2] worked out at 6.5 µM.

As for `O=Cc1ccccc1OCc1cn(Cc2ccc3c(c2)C(=O)c2ccccc2C3=O)nn1`, the inhibition at 50 µM in data set [1] came to 90.7%. Also, the 50% inhibitory concentration (IC50) in data set [2] came out at 0.6 µM. The Ki (in general, a measure of affinity in units of concentration, obtained from inhibition or displacement) worked out at 0.57 µM in data set [3] and 0.94 µM in data set [4]. In addition, the “Ratio IC50” value in data set [5] is on record as more than 10. As to `O=C(O)c1ccccc1OCc1cn(Cc2ccc3c(c2)C(=O)c2ccccc2C3=O)nn1`, in data set [1], the inhibition at 50 µM turned out to be 24.2%. For the compound `O=Cc1cc(Cl)ccc1OCc1cn(Cc2ccc3c(c2)C(=O)c2ccccc2C3=O)nn1`, the inhibition at 50 µM in data set [1] came to 61.1%. Also, the concentration for half-maximal inhibition (IC50) in data set [2] came out at 46.5 µM. Regarding `O=C1c2ccccc2C(=O)c2cc(Cn3cc(COc4ccccc4)nn3)ccc21`, the inhibition at 50 µM in data set [1] came to 18.4%.

Take `O=C1c2ccccc2C(=O)c2cc(Cn3cc(CO)nn3)ccc21`: the inhibition at 50 µM in data set [1] was found to be 31%. Turning to `COc1cc(C=O)cc(OC)c1OCc1cn(Cc2ccc3c(c2)C(=O)c2ccccc2C3=O)nn1`, the inhibition at 50 µM in data set [1] came to 70.3%. In addition, in data set [2], the IC50 amounted to 16.8 µM. For `O=Cc1cc(Br)ccc1OCc1cn(Cc2ccc3c(c2)C(=O)c2ccccc2C3=O)nn1`, the inhibition at 50 µM in data set [1] is 21.1%. On the same count and under the same terms, next, `N#Cc1ccc(OCc2cn(Cc3ccc4c(c3)C(=O)c3ccccc3C4=O)nn2)cc1`: 7%; `CCCCCCn1cc(COc2ccccc2C=O)nn1`: 43.5%. On the same count and under the same terms, under `CCN(CC)c1ccc(C=O)c(OCc2cn(Cc3ccc4c(c3)C(=O)c3ccccc3C4=O)nn2)c1` stands 9.8%. For `CCCCCCn1cc(COc2ccc(F)cc2C=O)nn1`, the inhibition at 50 µM in data set [1] turned out to be 93%. In addition, in data set [2], the IC50 is 9 µM. As for `O=Cc1cc(F)ccc1OCc1cn(Cc2ccc3c(c2)C(=O)c2ccccc2C3=O)nn1`, the inhibition at 50 µM in data set [1] was 88%. For the same compound, the half-maximal inhibitory concentration (IC50) in data set [2] amounted to 0.8 µM. Further, in data set [5], the “Ratio IC50” value is recorded as more than 10.

For `O=Cc1cccc(OCc2cn(Cc3ccc4c(c3)C(=O)c3ccccc3C4=O)nn2)c1`, in data set [1], the inhibition at 50 µM worked out at 77.2%. For the same compound, in data set [2], the IC50 worked out at 15.1 µM. Regarding `O=Cc1ccccc1OCc1cn(Cc2ccccc2)nn1`, the inhibition at 50 µM in data set [1] came to 46.7%. For `O=Cc1ccc(OCc2cn(Cc3ccc4c(c3)C(=O)c3ccccc3C4=O)nn2)cc1`, the inhibition at 50 µM in data set [1] was found to be 67.5%. Moreover, the concentration for half-maximal inhibition (IC50) in data set [2] came to 30.5 µM. In the case of `CC(=O)OCc1cn(Cc2ccc3c(c2)C(=O)c2ccccc2C3=O)nn1`, in data set [1], the inhibition at 50 µM came out at 19.4%. Turning to `Oc1ncnc2[nH]ncc12` [ALLOPURINOL], the inhibition at 50 µM in data set [1] stood at 95.1%.

The values above are taken from ChEMBL document CHEMBL4000245, “Discovery and biological evaluation of some (1H-1,2,3-triazol-4-yl)methoxybenzaldehyde derivatives containing an anthraquinone moiety as potent xanthine oxidase inhibitors” (Bioorg Med Chem Lett, 2017).
